This experiment has as its target T1, ALDH2 (Homo sapiens, UniProt P05091).
T1 construct: histidine-tag (N); made in house; host or cells: bacterial expression (pETite vector, IPTG induction)
T1 sequence (P05091 18-517): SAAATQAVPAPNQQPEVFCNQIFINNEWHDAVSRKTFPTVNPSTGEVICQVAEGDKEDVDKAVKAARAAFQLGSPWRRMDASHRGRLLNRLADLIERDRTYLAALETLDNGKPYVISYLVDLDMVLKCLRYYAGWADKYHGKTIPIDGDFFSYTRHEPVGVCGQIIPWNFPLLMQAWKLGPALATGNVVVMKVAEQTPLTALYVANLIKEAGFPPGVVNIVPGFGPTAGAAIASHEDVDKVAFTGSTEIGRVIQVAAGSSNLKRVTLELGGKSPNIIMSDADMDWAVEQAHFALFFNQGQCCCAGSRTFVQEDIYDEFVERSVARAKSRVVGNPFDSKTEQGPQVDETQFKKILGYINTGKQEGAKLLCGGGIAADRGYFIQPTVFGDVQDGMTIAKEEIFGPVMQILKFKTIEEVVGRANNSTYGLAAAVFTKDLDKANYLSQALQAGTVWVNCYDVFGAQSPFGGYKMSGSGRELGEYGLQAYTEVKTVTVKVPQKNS
Description: Purified ALDH2 assay with propanal, NADH fluorescence. The format is biochemical. The settings on record: purified enzyme. The procedure, abridged: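 His-tagged human ALDH2 expressed in bacteria and purified. 2 μg enzyme incubated with 20 μM propanal and varying inhibitor concentrations at room temperature. Activity read as NADH fluorescence (Ex 350/Em 460 nm), with initial velocity from two consecutive readings over 1 minute.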

The structures appear in SMILES notation. Where a name gives a salt, the structure may show the parent alone. Some results are limits rather than exact numbers.

`O=Cc1cn(-c2ccccc2)nc1-c1ccc(O)cc1` [Cmpd 34] yielded an IC50 of 18.2 µM.

In the case of `CS(=O)(=O)c1ccc(-c2nn(-c3ccccc3)cc2C(=O)Nc2cccc(F)c2)cc1` [Compound 178, 3-(4-(Methylsulfonyl)phenyl)-N-(3-fluorophenyl)-1-phenyl-1H-pyrazole-4-carboxamide], the IC50 is 20.9 µM. Compound `CS(=O)(=O)c1ccc(-c2nn(-c3ccccc3)cc2C(=O)Nc2cccc(O)c2)cc1` [Compound 211, 3-(4-(Methylsulfonyl)phenyl)-N-(3-hydroxyphenyl)-1-phenyl-1H-pyrazole-4-carboxamide] displayed a 50% inhibitory concentration (IC50) of 15.5 µM. `CS(=O)(=O)c1ccc(-c2nn(-c3ccccc3)cc2C(=O)Nc2cccc(Cl)c2)cc1` [Compound 219, 3-(4-(Methylsulfonyl)phenyl)-N-(3-chlorophenyl)-1-phenyl-1H-pyrazole-4-carboxamide] registered a concentration for half-maximal inhibition (IC50) of more than 25 µM. In the case of `CCS(=O)(=O)c1ccc(-c2nn(-c3ccccc3)cc2C(=O)Nc2cccc(F)c2)cc1` [Compound 223, 3-(4-(Ethylsulfonyl)phenyl)-N-(3-fluorophenyl)-1-phenyl-1H-pyrazole-4-carboxamide] it was 133 µM; in that of `CS(=O)(=O)c1ccc(-c2nn(-c3ccccc3)cc2C(=O)Nc2cccc(F)c2O)cc1` [Compound 231, N-(3-Fluoro-2-hydroxyphenyl)-3-[4-(methylsulfonyl)phenyl]-1-phenyl-1H-pyrazole-4-carboxamide], 67.3 µM; in that of `CS(=O)(=O)c1ccc(-c2nn(-c3ccc(Cl)cc3)cc2C(=O)Nc2ccccc2O)cc1` [Compound 233, N-(2-Hydroxyphenyl)-3-[4-(methylsulfonyl)phenyl]-1-(4-chloropheny)-1H-pyrazole-4-carboxamide], 87.2 µM. Consider `CS(=O)(=O)c1ccc(-c2nn(-c3ccc(F)cc3)cc2C(=O)Nc2cccc(F)c2)cc1` [Compound 241, N-(3-Fluorophenyl)-3-[4-(methylsulfonyl)phenyl]-1-(4-fluorophenyl)-1H-pyrazole-4-carboxamide], for which half-maximal inhibition (IC50) was put at 16.6 µM. Turning to `CS(=O)(=O)c1ccc(-c2nn(-c3ccc(OC(F)(F)F)cc3)cc2C(=O)Nc2cccc(F)c2)cc1` [Compound 258, N-(3-Fluorophenyl)-1-(4-trifluoromethoxypheny)-3-[4-(methylsulfonyl)phenyl]-1H-pyrazole-4-carboxamide], half-maximal inhibition (IC50) required 100 µM. Turning to `CS(=O)(=O)c1ccc(-c2nn(-c3ccc(C#N)cc3)cc2C(=O)Nc2cccc(C(F)(F)F)c2)cc1` [Compound 262, 1-(4-Cyanophenyl)-N-(3-trifluoromethylphenyl)-3-[4-(methylsulfonyl)phenyl]-1H-pyrazole-4-carboxamide], the half-inhibitory concentration (IC50) turned out to be 16.7 µM. `CS(=O)(=O)c1ccc(-c2nn(-c3cccc(F)c3)cc2C(=O)Nc2cccc(C(F)(F)F)c2)cc1` [Compound 266, 1-(3-Fluorophenyl)-N-(3-trifluoromethylphenyl)-3-[4-(methylsulfonyl)phenyl]-1H-pyrazole-4-carboxamide]: the 50% inhibitory concentration (IC50) came out at 100 µM. As for `CS(=O)(=O)c1ccc(-c2nn(-c3cccc(C#N)c3)cc2C(=O)Nc2cccc(F)c2)cc1` [Compound 268, 1-(3-Cyanophenyl)-N-(3-fluorophenyl)-3-[4-(methylsulfonyl)phenyl]-1H-pyrazole-4-carboxamide], the 50% inhibitory concentration (IC50) turned out to be 83.7 µM.

As for `CS(=O)(=O)c1ccc(-c2nn(-c3cccc(C#N)c3)cc2C(=O)Nc2ccc(F)c(F)c2)cc1` [Compound 269, 1-(3-Cyanophenyl)-N-(3,4-difluorophenyl)-3-[4-(methylsulfonyl)phenyl]-1H-pyrazole-4-carboxamide], the concentration for half-maximal inhibition (IC50) stood at 67.7 µM. In the case of `CCc1ccc(C(=O)N2CCN(c3ccc([N+](=O)[O-])c(N4CCCC4)c3)CC2)s1` [Compound 323, {4-[4-Nitro-3-(pyrrolidin-1-yl)phenyl]piperazin-1-yl}(5-ethylthiophen-2-yl)methanone] it was 52 µM; in that of `CCOc1ccsc1C(=O)N1CCN(c2ccc([N+](=O)[O-])c(N3CCCC3)c2)CC1` [Compound 326, {4-[4-Nitro-3-(pyrrolidin-1-yl)phenyl]piperazin-1-yl}(3-ethoxythiophen-2-yl)methanone], 97.3 µM; in that of `Cc1cc(C(=O)N2CCN(c3ccc([N+](=O)[O-])c(N4CCCC4)c3)CC2)sc1C` [Compound 327, {4-[4-Nitro-3-(pyrrolidin-1-yl)phenyl]piperazin-1-yl}(4,5-dimethylthiophen-2-yl)methanone], 79.8 µM. Compound `COc1ccsc1C(=O)N1CCN(c2ccc([N+](=O)[O-])c(N3CCCC3)c2)CC1` [Compound 329, {4-[4-Nitro-3-(pyrrolidin-1-yl)phenyl]piperazin-1-yl}(3-methoxythiophen-2-yl)methanone] showed a half-inhibitory concentration (IC50) of 86.4 µM. Compound `Nc1ccsc1C(=O)N1CCN(c2ccc([N+](=O)[O-])c(N3CCCC3)c2)CC1` [Compound 331, {4-[4-Nitro-3-(pyrrolidin-1-yl)phenyl]piperazin-1-yl}(3-aminothiophen-2-yl)methanone hydrochloride] returned a concentration for half-maximal inhibition (IC50) of 24.9 µM. As to `CC(=O)Nc1ccsc1C(=O)N1CCN(c2ccc([N+](=O)[O-])c(N3CCCC3)c2)CC1` [Compound 332], the IC50 worked out at 58.3 µM. In turn, `O=C(c1ccc(F)s1)N1CCN(c2ccc([N+](=O)[O-])c(N3CCCC3)c2)CC1` [Compound 334, {4-[4-Nitro-3-(pyrrolidin-1-yl)phenyl]piperazin-1-yl}(5-fluorothiophen-2-yl)methanone] registered a concentration for half-maximal inhibition (IC50) of more than 100 µM.

In turn, `O=C(c1ccc(Cl)cc1)N1CCN(c2ccc([N+](=O)[O-])c(N3CCCC3)c2)CC1` [Compound 342, 4-Chlorophenyl-1-{4-[4-nitro-3-(pyrrolidin-1-yl)phenyl]piperazin-1-yl}methanone] registered a half-maximal inhibitory concentration (IC50) of more than 100 µM. `Cn1cccc1C(=O)N1CCN(c2ccc([N+](=O)[O-])c(N3CCCC3)c2)CC1` [Compound 343, [4-(4-Nitro-3-(pyrrolidin-1-yl)phenyl)piperazin-1-yl](1-methyl-1H-pyrrol-2-yl)methanone] gave a 50% inhibitory concentration (IC50) of 97.5 µM. In turn, `COc1ccc(C(=O)N2CCN(c3ccc([N+](=O)[O-])c(N4CCCC4)c3)CC2)cc1` [Compound 345, 4-Methoxyphenyl-1-{4-[4-nitro-3-(pyrrolidin-1-yl)phenyl]piperazin-1-yl}methanone] yielded an IC50 of more than 100 µM. In the case of `CN(C)c1ccc(C(=O)N2CCN(c3ccc([N+](=O)[O-])c(N4CCCC4)c3)CC2)cc1` [Compound 346, 4-Dimethylaminophenyl-1-{4-[4-nitro-3-(pyrrolidin-1-yl)phenyl]piperazin-1-yl}methanone] it was more than 100 µM.

Broadly, the IC50 is the point on the concentration scale where inhibition reaches its midpoint.

These data come from patent publication US11548875B2, “Inhibitor compounds for male contraception” (University of Washington, priority 2018, dated 2023).
